Reference: patent US5362879A, “4-5-diphenyloxazole derivatives as inhibitors of blood platelet aggregation” (Bristol-Myers Squibb Company, priority 1993, dated 1994)
≈ marks a conversion by molar mass, not a printed value.

Experiments:
platelet aggregation = details: prior art description; cited from earlier work
human PRP = details: cited from earlier work
[1] = tested on: human platelets in platelet-rich-plasma; assay: ADP-induced aggregation of human platelets in platelet-rich plasma (Born aggregometer method as modified by Mustard et al.); format: cell-based
Experimental: Platelet-rich plasma was prepared from human blood drain into syringes containing 1/10 volume of 3.8% sodium citrate. The blood was then subjected to centrifugation for about 10 minutes at 140 g and then the platelet-rich plasma decanted. The test compound was dissolved in DMSO (5 μL) and added to PRP (0.9 mL) 3 minutes prior to the addition of ADP (5.86 μM). The aggregometer method of Born, as modified by Mustard et al., was employed to measure platelet aggregation. Vehicle control trials were performed and compared with the extent of aggregation induced in PRP containing various concentrations of the test compounds. Dose-response curves were thus obtained and IC50 values determined.

Structure (SMILES) | inhibition of platelet aggregation (in words) (platelet aggregation) | IC50 (human PRP vs ADP) (human PRP) [mg/L] | potency relative to the compound of Formula (ii) (inhibition of ADP-induced platelet aggregation) [1]
O=C(O)CCCCCCCOc1nc(-c2ccccc2)c(-c2ccccc2)n1-c1ccccc1 [octimibate sodium] | possessing anti-aggregatory activity | – | –
O=C(O)CCCCCCCOc1nc(-c2ccccc2)c(-c2ccccc2)n1-c1ccccc1 [Octimibate] | broad spectrum inhibitor of platelet aggregation | 1 (≈ 2.2 µM) | –
CCOC(=O)N(Cc1nc(-c2ccccc2)c(-c2ccccc2)o1)c1cccc(OCC(=O)O)c1 [Compound 13d, [3-[[(4,5-diphenyl-2-oxazolyl)methyl](ethoxycarbonyl)amino]phenoxy]acetic acid] | – | – | four times as potent
